Assay results taken from PMC12561453, “Synthesis and Structure–Activity Relationship Study of 2-(amino)quinazolin-4(3H)-one Derivatives as Potential Inhibitors of Methicillin-Resistant Staphylococcus aureus (MRSA)” (Antibiotics, 2025).
Converted amounts (≈) assume the structure as drawn. Where two headings read alike, the source gives them in different places.

Key:
[1] = test system: S. aureus USA300 JE2; assay: Broth microdilution dose-response, S. aureus USA300 JE2 (MRSA); type: cell-based, Staphylococcus aureus; conditions: Staphylococcus aureus, USA300, USA300 JE2, methicillin-resistant; OD600 after 18–24 h; read-out: USA300 MIC50
Text: The antistaphylococcal activities (MIC50) of the synthesized compounds were examined via a previously described broth microdilution method against two S. aureus strains: ATCC25923, a methicillin-sensitive reference strain, and JE2, a methicillin-resistant strain of the USA300 lineage (Figure 2, Table 1).
Staphylococcus aureus USA300, a methicillin-resistant strain, was obtained from the Nebraska Transposon Mutant Library. Staphylococcus aureus ATCC25923, a pan-drug-susceptible strain, was purchased from the American Type Culture Collection (ATCC) (Manassas, VA, USA). S. aureus strains were grown in Cation-Adjusted Mueller–Hinton broth (CAMHB) (Difco) at 37 °C. Bacterial strain stocks were stored in vials with 25% glycerol at −80 °C. For each experiment, overnight cultures were prepared by inoculating a frozen bacterial strain stock in 10 mL of CAMHB medium and incubating at 37 °C in a shaking incubator (180 rpm). For the preliminary screen and dose–response experiments, 100 µL of overnight culture was inoculated into 10 mL of fresh CAMHB and incubated for 3 h at 37 °C and 180 rpm.
Antibiotic susceptibility assay was tested according to modified Clinical and Laboratory Standards Institute (CLSI) laboratory guidelines for broth microdilution assays. S. aureus was cultured in CAMHB, and bacterial cells were prepared with an OD600 of 0.005. DRC plates were prepared by adding 40 µL of bacterial suspension to each well, where 10 µL of each compound had been dispensed for […] of two-fold serial dilutions starting at […]. After incubation of the plates at 37 °C for 18–24 h with 5% CO2, the growth of S. aureus was detected by measuring the OD600nm using an Ensight (Revvity) spectrometer (Revvity, Waltham, MA, USA).
Figure 2 In vitro antibacterial activities of 2-(amino)quinazolin-4(3H)-one derivatives. S. aureus ATCC25923 (blue) and USA300 JE (orange) strains were incubated with serial dilutions of 2-(amino)quinazolin-4(3H)-one derivatives (0.19–100 µM) for 18–24 h. The dose–responses were observed by measuring OD600nm. The plots were drawn from each group of strains with nonlinear curve fits.

[2] = test system: HepG2 cells; assay: In vitro cytotoxicity, HepG2 viability (resazurin); type: cell-based, human; conditions: HepG2 cells, 24 h, resazurin, read-out: HepG2 IC50
Method: The in vitro cytotoxicity of the compounds was evaluated by measuring the viability of HepG2 cells, a human liver cell line, following treatment in a dose–response manner, as previously described. […] The efficacy window was calculated as the ratio of IC50 in HepG2 cells to MIC50 against JE2.
To test cytotoxicity with compounds, the human liver cell line HepG2 (ATCC #HB-8065) was used for the assay. HepG2 was cultured in DMEM with 10% fetal bovine serum (FBS) in a 96-well microplate at 37 °C and 5% CO2. HepG2 cells were seeded at a final density of 5 × 10^4 cells/well, and DMEM-containing diluted compounds were added and incubated on the plates at 37 °C in 5% CO2 for 24 h. After that, resazurin (final concentration, 0.1 mg/mL) was added to each well and incubated on the plates at 37 °C in 5% CO2 for 2 h. To detect the fluorescence at 530 nm excitation and 590 nm emission, an Ensight multimode plate reader was used (Revvity, Waltham, MA, USA).

[3] = Cytotoxicity in HFL-1 cells; type: cell-based; conditions: human, HFL-1 cells (embryonic lung cell line)
Method: (§1) Table S1. Results of hERG binding assay and cytotoxicity of 6l and 6y
(§2) Compound hERGa CytotoxicityVERO HFL-1 L929 NIH 3T3 CHO-K1
(§3) a % inhibition at 10 μM concentrations. b IC50 values in various mammalian cell lines. […]

[4] = Cytotoxicity in L929 cells; type: cell-based; conditions: mouse, L929 cells (NCTC clone 929, fibroblast cell line)
Method: as §1, §2, §3

[5] = Cytotoxicity in NIH 3T3 cells; type: cell-based; conditions: mouse, NIH 3T3 cells (embryonic fibroblast cell line)
Method: as §1, §2, §3

[6] = biological target: T1, CYP1A2 (Homo sapiens, UniProt P05177); assay: CYP inhibition in human liver microsomes, 1A2; type: in vitro ADME
T1 construct: from tissue; host or cells: human liver microsomes
T1 sequence (P05177 1-516): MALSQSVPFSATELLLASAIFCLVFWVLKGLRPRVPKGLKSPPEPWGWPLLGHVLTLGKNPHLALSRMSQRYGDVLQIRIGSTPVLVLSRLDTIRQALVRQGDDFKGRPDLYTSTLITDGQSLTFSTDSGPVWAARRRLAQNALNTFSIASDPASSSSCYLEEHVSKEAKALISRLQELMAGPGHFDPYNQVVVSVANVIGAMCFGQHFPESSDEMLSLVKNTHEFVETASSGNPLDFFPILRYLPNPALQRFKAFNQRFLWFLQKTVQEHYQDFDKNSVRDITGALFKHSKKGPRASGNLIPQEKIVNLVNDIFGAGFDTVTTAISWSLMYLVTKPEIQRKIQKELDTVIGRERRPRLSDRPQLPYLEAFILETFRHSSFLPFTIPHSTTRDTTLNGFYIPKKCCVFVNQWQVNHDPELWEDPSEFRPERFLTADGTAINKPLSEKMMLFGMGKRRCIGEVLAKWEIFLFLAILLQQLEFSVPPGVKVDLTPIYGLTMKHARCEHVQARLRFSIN
Method: (§4) Table S2. Result of microsomal stability, plasma protein binding rate, and CYP inhibition of 6l and 6y
(§5) Compound MSa PPBrat human rat human 1A2 2C9 2C19 2D6 3A4
(§6) a % of remaining after 30 min. b plasma protein binding rate (%) at 5 μM concentrations. c % of CYP
(§7) inhibition in human liver microsomes at 10 μM concentrations. […]

[7] = biological target: T2, CYP2C19 (Homo sapiens, UniProt P33261); assay: CYP inhibition in human liver microsomes, 2C19; type: in vitro ADME
T2 construct: from tissue; host or cells: human liver microsomes
T2 sequence (P33261 whole entry): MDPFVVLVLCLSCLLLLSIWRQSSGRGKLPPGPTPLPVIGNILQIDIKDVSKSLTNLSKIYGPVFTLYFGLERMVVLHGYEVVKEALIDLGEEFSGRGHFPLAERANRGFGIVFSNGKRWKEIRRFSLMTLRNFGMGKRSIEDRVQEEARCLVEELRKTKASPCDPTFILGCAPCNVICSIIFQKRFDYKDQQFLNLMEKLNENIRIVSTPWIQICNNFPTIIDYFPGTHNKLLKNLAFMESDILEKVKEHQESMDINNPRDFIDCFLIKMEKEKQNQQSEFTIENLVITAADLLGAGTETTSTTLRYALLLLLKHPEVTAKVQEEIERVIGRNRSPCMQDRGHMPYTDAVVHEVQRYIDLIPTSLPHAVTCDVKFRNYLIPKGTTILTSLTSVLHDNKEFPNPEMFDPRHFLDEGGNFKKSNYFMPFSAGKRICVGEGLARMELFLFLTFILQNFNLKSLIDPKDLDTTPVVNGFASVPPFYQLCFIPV
Method: as §4, §5, §6, §7

[8] = biological target: T3, CYP2D6 (Homo sapiens, UniProt P10635); assay: CYP inhibition in human liver microsomes, 2D6; type: in vitro ADME
T3 construct: from tissue; host or cells: human liver microsomes
T3 sequence (P10635 whole entry): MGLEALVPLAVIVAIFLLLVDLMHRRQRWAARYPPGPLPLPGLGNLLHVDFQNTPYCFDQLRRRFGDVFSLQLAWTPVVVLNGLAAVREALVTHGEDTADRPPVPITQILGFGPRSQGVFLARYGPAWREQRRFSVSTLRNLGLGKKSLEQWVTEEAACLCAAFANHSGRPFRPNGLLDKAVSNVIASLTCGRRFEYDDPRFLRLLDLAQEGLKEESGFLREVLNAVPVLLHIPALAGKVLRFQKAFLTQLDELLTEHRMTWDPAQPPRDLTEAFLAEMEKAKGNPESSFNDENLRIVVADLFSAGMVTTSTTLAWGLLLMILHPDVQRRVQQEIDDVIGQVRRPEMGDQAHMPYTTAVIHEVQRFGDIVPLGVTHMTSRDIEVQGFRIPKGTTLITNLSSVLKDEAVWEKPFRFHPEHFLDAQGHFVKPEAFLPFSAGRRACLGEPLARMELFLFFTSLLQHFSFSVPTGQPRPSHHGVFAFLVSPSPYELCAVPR
Method: as §4, §5, §6, §7

[9] = biological target: T4, CYP3A4 (Homo sapiens, UniProt P08684); assay: CYP inhibition in human liver microsomes, 3A4; type: in vitro ADME
T4 construct: from tissue; host or cells: human liver microsomes
T4 sequence (P08684 whole entry): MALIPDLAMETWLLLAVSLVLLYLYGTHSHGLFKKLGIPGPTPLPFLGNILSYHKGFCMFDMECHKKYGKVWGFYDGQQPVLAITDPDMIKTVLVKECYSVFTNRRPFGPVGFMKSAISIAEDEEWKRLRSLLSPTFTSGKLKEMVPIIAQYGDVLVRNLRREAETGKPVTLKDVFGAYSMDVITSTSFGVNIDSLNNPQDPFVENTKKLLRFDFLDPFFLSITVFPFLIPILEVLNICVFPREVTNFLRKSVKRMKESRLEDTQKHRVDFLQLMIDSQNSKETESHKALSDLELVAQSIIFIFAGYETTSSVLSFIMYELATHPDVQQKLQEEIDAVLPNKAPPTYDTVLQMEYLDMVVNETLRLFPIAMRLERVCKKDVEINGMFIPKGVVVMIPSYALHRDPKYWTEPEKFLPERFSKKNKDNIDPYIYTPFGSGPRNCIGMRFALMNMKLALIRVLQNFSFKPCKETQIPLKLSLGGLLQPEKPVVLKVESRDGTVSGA
Method: as §4, §5, §6, §7

[10] = Rat pharmacokinetic study; type: in vivo; conditions: male rats
Method: Table S3. Rat pharmacokinetic study of 6l and 6y
Parametersa I.V., 2 mg/kg P.O., 10 mg/kg I.V., 5 mg/kg P. O . , 1 0 mg/kg
Cmax ([…]) NA 0.9 NA 0.2
CL (L/h/kg) 0.25 NA 1.8 NA
a All results are mean of experiments using three male rats. b NA: not applicable

[11] = rat, in vivo, iv, I.V., 5 mg/kg

Structure (SMILES)	MIC50 [1] [µM]	IC50 ([2]; Homo sapiens, HepG2, 24 h) [µM]	IC50 [3] [µM]	IC50 [4] [µM]	IC50 [5] [µM]	inhibition at 10 µM [6] [%]	inhibition at 10 µM [7] [%]	inhibition at 10 µM [8] [%]	inhibition at 10 µM [9] [%]	Ft ([10]; P.O., 10 mg/kg) [%]	also measured
O=c1[nH]c(Nc2cc(Cl)cc(Cl)c2)nc2cc(Cl)ccc12 [6l, 7-Chloro-2-((3,5-dichlorophenyl)amino)quinazolin-4(3H)-one]	0.6 (≈ 0.204 µg/mL)	62	7.5	31.4	> 100	15.1	< 1	20.1	32.2	15.6	IC50 [2]: 62.2 µM; AUC ([10]; I.V., 2 mg/kg): 8500 ng·h/mL; CL ([10]; I.V., 2 mg/kg): 4.17 mL/min/kg; T1/2 ([10]; I.V., 2 mg/kg): 2.2 h; Vss ([10]; I.V., 2 mg/kg): 1.6 L/kg; AUC ([10]; P.O., 10 mg/kg): 6600 ng·h/mL; Cmax ([10]; P.O., 10 mg/kg): 0.9; T1/2 ([10]; P.O., 10 mg/kg): 5.7 h; Tmax ([10]; P.O., 10 mg/kg): 2.5 h
O=c1[nH]c(NCc2ccc(F)c(F)c2)nc2cc(Cl)ccc12 [6y, 7-Chloro-2-((3,4-difluorobenzyl)amino)quinazolin-4(3H)-one]	0.02 (≈ 0.00643 µg/mL)	20.2	50.7	79	62	92.5	93.6	90.1	91.4	33.4	clearance [10, 11]: 30 mL/min/kg; half-life [10, 11]: 8.5 h; AUC ([10]; rat, in vivo, iv, I.V., 5 mg/kg, read-out: AUC): 2800 ng·h/mL; Vd ([10]; rat, in vivo, iv, I.V., 5 mg/kg, read-out: Vss): 5.2 L/kg; half-life ([10]; rat, in vivo, po, P.O., 10 mg/kg): 3.6 h; AUC ([10]; rat, in vivo, po, P.O., 10 mg/kg, read-out: AUC): 1900 ng·h/mL; Cmax ([10]; rat, in vivo, po, P.O., 10 mg/kg, read-out: Cmax): 200 ng/mL; Tmax ([10]; rat, in vivo, po, P.O., 10 mg/kg, read-out: Tmax): 5.3 h
